Source: article PMC2113781 (The Journal of Cell Biology, 1985)
“And” between values parts separate entries of the source, which are not always exact repeats. Equal values may be shown once.

Columns and labels:
[1] = system: muscarinic cholinergic receptor; format: cell-based, chick
[2] = system: muscarinic binding sites; design: species or system chick

Row | SMILES | Effect relative to acetylcholine [1] | agonistic effect on Ca2+ mobilization [1] | RH, two-sites model [2] | RL, two-sites model [2] | nH, phenomenological cooperativity model (Hill coefficient) [2] | type of antagonism [1]
1 | CC(=O)OCC[N+](C)(C)C [Acetylcholine, acetylcholine] | 100% | full agonists | 15.3 pmol/L and 20.9 pmol/L | 13.8 pmol/L and 19.4 pmol/L | 0.41 and 0.39 | –
2 | CN1[C@@H]2CC[C@H]1C[C@@H](OC(=O)C(CO)c1ccccc1)C2 (some centres unmarked) [Atropine, atropine] | – | – | – | – | 0.79 | –
3 | CC(C[N+](C)(C)C)OC(N)=O (centres unmarked) [Bethanechol, bethanechol] | 23% | partial agonist | 9.1 pmol/L | 19.9 pmol/L | 0.65 | reversible competitive antagonists
4 | C[N+](C)(C)CCOC(N)=O [Carbachol, carbachol] | 92% | full agonists | 14.6 pmol/L | 18.4 pmol/L | 0.41 | –
5 | O=C1CC[C@@](c2ccccc2)(C2CCN(Cc3ccccc3)CC2)C(=O)N1 [Dexetimide, dexetimide] | – | – | – | – | 0.63 | irreversible competitive antagonists
6 | O=C1CC[C@](c2ccccc2)(C2CCN(Cc3ccccc3)CC2)C(=O)N1 [Levetimide, levetimide] | – | – | – | – | 0.76 | reversible competitive antagonists
7 | O=C1CCCN1CC#CCN1CCCC1 [Oxotremorine, oxotremorine] | – | No reaction | – | – | 0.95 | reversible competitive antagonists
8 | CC[C@@H]1C(=O)OC[C@@H]1Cc1cncn1C [Pilocarpine, pilocarpine] | – | No reaction | – | – | 0.68 | reversible competitive antagonists
9 | CN1CCN(CC(=O)N2c3ccccc3C(=O)Nc3cccnc32)CC1 [Pirenzepine, pirenzepine] | – | – | – | – | 1.31 | reversible competitive antagonists
